Tests used:
Experiment in all cases: relative viability (nuclei count vs DMSO), 5 days (fraction); higher = more cells survive
[1] = compound: O=S(=O)(c1ccccc1)N(CC(F)(F)F)c1ccc(C(O)(C(F)(F)F)C(F)(F)F)cc1 + Nc1nc2[nH]cc(CCc3ccc(C(=O)N[C@@H](CCC(=O)O)C(=O)O)cc3)c2c(=O)[nH]1 [Pemetrexed] (partner 0.2 µM)
In short: (§1)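 Relative viability is defined as nuclei in treated wells over nuclei in vehicle wells. Duplicate plates were run and medians reported. Lung cancer cell lines in 1536-well plates were dosed by pin tool one day after seeding, with one drug or with a fixed anchor-drug dose plus five library-drug doses (not always all listed) in √10 steps, and nuclei were counted after 5 days.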

RO-3306 + Foretinib = compound: C1=CC2=C(C=CC(=C2)C=C3C(=O)NC(=NCC4=CC=CS4)S3)N=C1 [RO-3306] + COc1cc2c(Oc3ccc(NC(=O)C4(C(=O)Nc5ccc(F)cc5)CC4)cc3F)ccnc2cc1OCCCN1CCOCC1 [Foretinib] (partner 0.25 µM)
In short: as §1

[2] = compound: O=S(=O)(c1ccccc1)N(CC(F)(F)F)c1ccc(C(O)(C(F)(F)F)C(F)(F)F)cc1 + CC(C)C[C@H](NC(=O)[C@H](Cc1ccccc1)NC(=O)c1cnccn1)B(O)O [Bortezomib] (partner 0.002 µM)
In short: as §1

RO-3306 + Olaparib = compound: C1=CC2=C(C=CC(=C2)C=C3C(=O)NC(=NCC4=CC=CS4)S3)N=C1 [RO-3306] + O=C(c1cc(Cc2n[nH]c(=O)c3ccccc23)ccc1F)N1CCN(C(=O)C2CC2)CC1 [Olaparib] (partner 8 µM)
In short: as §1

[3] = compound: O=S(=O)(c1ccccc1)N(CC(F)(F)F)c1ccc(C(O)(C(F)(F)F)C(F)(F)F)cc1 + Cc1nc(NC(=O)N2CCC[C@H]2C(N)=O)sc1-c1ccnc(C(C)(C)C(F)(F)F)c1 [Alpelisib] (partner 2 µM)
In short: as §1

UMC-11
relative viability ([1]; first compound 0.8 µM): 0.786
relative viability ([1]; first compound 2.53 µM): 0.736
relative viability ([1]; first compound 8 µM): 0.852
relative viability (RO-3306 + Foretinib; first compound 0.01 µM): 0.999
relative viability (RO-3306 + Foretinib; first compound 0.03162 µM): 0.772
relative viability (RO-3306 + Foretinib; first compound 0.1 µM): 1.05
relative viability (RO-3306 + Foretinib; first compound 0.3162 µM): 1.21
relative viability (RO-3306 + Foretinib; first compound 1 µM): 1.16
relative viability ([2]; first compound 0.8 µM): 0.929
relative viability ([2]; first compound 2.53 µM): 0.743
relative viability ([2]; first compound 8 µM): 0.972
relative viability (RO-3306 + Olaparib; first compound 0.01 µM): 0.365
relative viability (RO-3306 + Olaparib; first compound 0.03162 µM): 0.411
relative viability (RO-3306 + Olaparib; first compound 0.1 µM): 0.351
relative viability (RO-3306 + Olaparib; first compound 0.3162 µM): 0.385
relative viability (RO-3306 + Olaparib; first compound 1 µM): 0.299
relative viability ([3]; first compound 0.8 µM): 1.24
relative viability ([3]; first compound 2.53 µM): 0.98
relative viability ([3]; first compound 8 µM): 1.25
